# Experimental data taken from PubChem BioAssay AID1996.
# Settings: buffer; pH 7.4; 200.0 µM
row,Structure (SMILES),solubility kinetic [µg/mL]
1,Cc1noc(NS(=O)(=O)c2ccc(NC(=O)COc3ccc(C#N)cc3)cc2)c1C,> 64
2,O=C1C2C3c4ccccc4C(c4ccccc43)[C@@H]2C(=O)N1c1ccccn1 (stereo partly specified),2.9
3,CNC(=O)COc1ccc(S(=O)(=O)N2CCCC2)cc1,40.9
4,CC(=O)Oc1ccc(C(c2ccc(OC(C)=O)cc2)c2ccccn2)cc1,> 54.2
5,CC(C)C(=O)Nc1cccc(-c2nc3ncccc3o2)c1,37.5
6,COc1cccc(NC(=O)CC(=O)c2ccc([N+](=O)[O-])cc2)c1,4.3
7,CCc1cccc(C)c1NC(=O)COC(=O)CC1CCCC1,15.7
8,COc1ccc(NC(=S)Nc2cccc(C(C)=O)c2)cc1OC,> 49.6
9,NC(=O)C1CCN(CC(=O)Nc2nccs2)CC1,38.4
10,COCC(C)n1c(C)cc(C(=O)COC(=O)c2cnc(Cl)c(Cl)c2)c1C (stereo unspecified),34
11,CCCCOC(=O)Nc1nnc(C(C)C)s1,> 36.5
12,COc1ccc(C2NC(=O)CCC2[N+](=O)[O-])c(OC)c1OC (stereo unspecified),> 46.5
13,Cc1cccc(NP(=O)(Oc2ccccc2)Oc2ccccc2)c1C,< 0.8
14,O=C(COC(=O)[C@@H]1CCCN1C(=O)c1cccs1)Nc1ccc(Br)cc1,2.4
15,O=C1NC2(CCCCCC2)C(=O)N1Cc1ccc(Br)cc1,5.2
16,CCOc1ccccc1OCC(=O)Nc1cc(C)on1,> 41.4
17,COC(=O)c1cc(OC)c(OC)cc1NC(=S)N1CCOCC1,39.7
18,CCOc1ccccc1NC(=O)N1CCCc2ccccc21,< 0.3
19,CC(C)[C@H](NC(=O)c1ccccc1F)C(=O)OCC(=O)NC(=O)NC1CCCCC1,51.3
20,Cc1ccc(NC(=O)NCc2nc3ccccc3n2C)cc1,34.8
21,O=C(Nc1ccc(N2CCOCC2)nc1)c1cccs1,> 43.4
22,COC(=O)c1c(NC(=O)C(Cl)Cl)sc2c1C(C(=O)OC)CC2 (stereo unspecified),8.6

row,Structure (SMILES),solubility kinetic [µg/mL]
1,CCc1ccc(NC(=O)NCc2ccc3c(c2)OCO3)cc1,0.6
2,CCNc1nc(-c2cc(C)n(Cc3ccco3)c2C)cs1,5.2
3,O=C(NCc1ccc2c(c1)OCO2)Nc1cccc(Cl)c1,1.3
4,COc1ccc(CC(CN)c2ccccc2)cc1 (stereo unspecified),29.5
5,Cc1ccc(CSCc2ccc(C(=O)NCC3CCCO3)o2)cc1 (stereo unspecified),39.4
6,CN(C)CCCNC(=O)c1cc(C(=O)c2ccccc2F)c[nH]1,> 47.6
7,CN(C)CCC(O)c1ccccc1 (stereo unspecified),13.3
8,CCSc1nnc(NC(=O)CN2C(=O)NC3(CCCC3)C2=O)s1,> 53.3
9,COc1cccc(OCC(=O)NC2CCCCCC2)c1,> 41.6
10,Cc1noc(C)c1COc1ncnc2ccccc12,> 38.3
11,N/C(=N\OC(=O)c1cccs1)C1(c2ccc(Cl)cc2Cl)CC1,12.3
12,CN1C(=O)c2ccc(NC(=O)CSc3ccccc3)cc2C1=O,6.3
13,S=c1nccc(-c2ccc3c(c2)CCO3)[nH]1,14.8
14,O=S(=O)(NCCc1c[nH]c2ccccc12)c1ccccc1,> 45.1
15,O=C(CSc1ncnc2ccccc12)NCc1ccc2c(c1)OCO2,10.1
16,C=CCNC(=O)c1ccc(S(=O)(=O)CC)c(Cl)c1Cl,> 48.3
17,CCCC(=O)OCC(=O)c1[nH]c(C)c(C(C)=O)c1C,> 39.8
18,CC(=O)Nc1ccc(C(=O)OCC(=O)Nc2ccc(N3CCOCC3)cc2)cc1,7
19,O=C(NCC(=O)N1CCOCC1)c1ccc(Cl)cc1,> 42.4
20,CCOP(=O)(OCC)C(Nc1ccccc1)c1cccnc1 (stereo unspecified),> 48
21,COc1ccc(C(O)(CCN2CCOCC2)c2ccccc2)cc1 (stereo unspecified),41.1
22,COc1cc(CC(=O)OCC(=O)NC2CCCCCC2)cc(OC)c1OC,> 56.9

row,Structure (SMILES),solubility kinetic [µg/mL]
1,CCOc1cc(N2CCOCC2)c(OCC)cc1NC(=O)c1cc(S(=O)(=O)N2CCOCC2)ccc1C,> 80
2,O=C(COc1ccccc1F)Nc1ccc2c(c1)CCC2,4
3,Cc1ccc(SC(C)C(=O)O/N=C(\N)c2ccncc2)cc1 (stereo unspecified),> 47.3
4,O=c1c(Cc2ccc(F)cc2)c(O)ccn1CC1CCCO1 (stereo unspecified),> 45.5
5,CC1(C)C(C(=O)O)N2C(=O)C(NC(=O)Cc3ccccc3)C2S1=O.O (stereo unspecified),38.7
6,CSc1nsc(SC)c1NC(=O)Nc1ccccc1C,1
7,COC(=O)c1c(-c2ccccc2)noc1C,18.1
8,CCc1nc(Nc2cccc(F)c2)c2oc3ccccc3c2n1.Cl,< 0.2
9,NC(=O)Cn1c(=O)n(Cc2ccccc2)c(=O)c2cccnc21,33.8
10,Cc1c(Cl)cccc1NC(=O)c1ccco1,> 35.4
11,CCc1ccccc1NC(=O)CCS(=O)(=O)c1ccc(OC)cc1,26.4
12,CCNC(=O)Cn1cc(C(F)(F)F)cc(Cl)c1=O,> 42.4
13,Cc1ccc2c(ccc(=S)n2C)c1,24.1
14,CC(CN1CCCC1)OC(=O)c1ccc(Cl)cc1Cl.Cl (stereo unspecified),> 50.8
15,Cc1cc(C)cc(C(=O)NCC(=O)OCC(=O)N2CCCCC2)c1,49.3
16,O=C(Nc1cccc(Cl)c1Cl)C1CCCC1,3.9
17,CCS(=O)(=O)N1CCC(C(=O)Nc2cc([N+](=O)[O-])ccc2C)CC1,> 53.3
18,Cc1nc(-c2noc(-c3ccccc3Cl)n2)c(C(F)(F)F)o1,0.6
19,Cc1c(C)n(CCc2ccccc2)c2ncnc(NCCO)c12,> 46.6
20,Cc1cccc(OP(N)(=O)Oc2cccc(C)c2C)c1C,3.9
21,O=C1CSC(c2ccc(Cl)cc2)N1c1cccnc1 (stereo unspecified),42.1
22,CCNC(=O)CCSc1nc(C)cc(C)n1,> 35.9

row,Structure (SMILES),solubility kinetic [µg/mL]
1,CC1(C)CC(NC(=S)NCc2ccco2)CC(C)(C)N1,> 44.3
2,Cc1ccc(N2CC(C(=O)OCC(=O)c3ccc(F)cc3)CC2=O)cc1 (stereo unspecified),23.5
3,COc1ccc(C(=O)COc2ccccc2C(N)=O)cc1,31.6
4,S=C(Nc1ccccc1)Nc1ccccc1-n1cccc1,34.2
5,CC1CN(C(=O)c2cc([N+](=O)[O-])cc([N+](=O)[O-])c2)CC(C)O1 (stereo unspecified),> 46.4
6,O=C(O)C1CC(=O)N(c2ccc(OCc3ccc(Br)cc3)cc2)C1 (stereo unspecified),> 58.5
7,CCOC(=O)NC(=O)CSc1ccc(S(=O)(=O)N2CCCCC2)cn1,> 58.1
8,Cc1ccc(-c2nc3ncccc3o2)cc1N,> 33.8
9,COc1cccc(OC)c1CN(C)C(=O)c1cnccc1C(F)(F)F,> 53.1
10,COc1ccccc1N1CCN(c2nccc(C)n2)CC1,40.3
11,COc1ccc(OC)c(C(O)c2nc3ccccc3n2C)c1 (stereo unspecified),> 44.8
12,O=C(c1ccc(F)cc1)C1CCN(Cc2ccc(F)cc2)CC1,36.2
13,COc1ccccc1C(=O)NCCSCc1c(F)cccc1Cl,13.6
14,COCC(C)NC(=O)COc1nncc2ccccc12 (stereo unspecified),> 41.3
15,COc1cccc(NC(=O)NCCN2CCCCC2)c1,37.8
16,Cc1ccccc1C(=O)NC1CCN(CC(=O)N2CCCCC2C)CC1 (stereo unspecified),> 53.6
17,CC(=O)N(C)c1ccc(C(O)(C(F)(F)F)C(F)(F)F)cc1,> 47.3
18,FC(F)(F)c1ccnc(N2CCN(Cc3cnc(-c4ccccc4)[nH]3)CC2)c1,26.8
19,CCCn1c(N)c(C(=O)CN2CCc3ccccc3C2)c(=O)n(C)c1=O,> 53.5
20,CC(C)c1ccc(C(=O)NN2CCOCC2)cc1,> 37.2
